According to ChEMBL document CHEMBL1128274, “6-Aminoquinolones: a new class of quinolone antibacterials?” (1995):
In brackets after ≈: the same amount, converted by molar mass.

Legend:
Format in all cases: functional
Staphylococcus aureus [1] = test: Tested in vitro for inhibitory activity against gram positive bacteria Staphylococcus aureus ATCC 6538 strain
Pseudomonas aeruginosa = test: Tested in vitro for inhibitory activity against gram negative bacteria Pseudomonas aeruginosa ATCC 9027 strain
[2] = system: Staphylococcus epidermidis; test: Tested in vitro for inhibitory activity against gram positive bacteria Staphylococcus epidermidis HCF berset C strain
[3] = system: Acinetobacter calcoaceticus; test: Tested in vitro for inhibitory activity against gram negative bacteria Acinetobacter calcoaceticus OSMPV 113 strain.
Escherichia coli [4] = test: Tested in vitro for inhibitory activity against gram negative bacteria Escherichia coli ATCC 8739 strain
Escherichia coli [5] = test: Tested in vitro for inhibitory activity against gram negative bacteria Escherichia coli ISF 432 strain.
Enterococcus faecalis = test: Tested in vitro for inhibitory activity against gram positive bacteria Streptococcus faecalis LEP Br strain
Shigella = test: Tested in vitro for inhibitory activity against gram negative bacteria Shigella enteritidis
Enterobacter cloacae = test: Tested in vitro for inhibitory activity against gram negative bacteria Enterobacter cloacae OMNFI 174 strain.
Providencia stuartii = test: Tested in vitro for inhibitory activity against gram negative bacteria Providencia stuartii CNUR 5 strain
Klebsiella pneumoniae = test: Tested in vitro for inhibitory activity against gram negative bacteria Klebsiella pneumoniae ATCC 10031 strain
[6] = system: Staphylococcus epidermidis; test: Tested in vitro for inhibitory activity against gram positive bacteria Staphylococcus epidermidis CPHL A2 strain
Staphylococcus aureus [7] = test: Tested in vitro for inhibitory activity against gram positive bacteria Staphylococcus aureus MPR 5 strain
Escherichia coli [8] = test: Tested in vitro for inhibitory activity against gram negative bacteria Escherichia coli ISF 432 cell lines at 25 ug/mL
Escherichia coli [9] = test: Tested in vitro for inhibitory activity against gram negative bacteria Escherichia coli ATCC 8739 cell lines at 25 ug/mL

SMILES | MIC (Staphylococcus aureus [1]) [µg/mL] | MIC (Pseudomonas aeruginosa) [µg/mL] | MIC [2] [µg/mL] | MIC [3] [µg/mL] | MIC (Escherichia coli [4]) [µg/mL] | MIC (Escherichia coli [5]) [µg/mL] | MIC (Enterococcus faecalis) [µg/mL] | MIC (Shigella) [µg/mL] | MIC (Enterobacter cloacae) [µg/mL] | MIC (Providencia stuartii) [µg/mL] | MIC (Klebsiella pneumoniae) [µg/mL] | MIC [6] [µg/mL] | MIC (Staphylococcus aureus [7]) [µg/mL] | MIC (Escherichia coli [8]) [µg/mL] | MIC (Escherichia coli [9]) [µg/mL]
Nc1cc2c(=O)c(C(=O)O)cn(C3CC3)c2cc1N1CCCC1 | 128 (≈ 408 µM) | 128 (≈ 408 µM) | 128 (≈ 408 µM) | 128 (≈ 408 µM) | 0.25 (≈ 0.798 µM) | 0.25 (≈ 0.798 µM) | 128 (≈ 408 µM) | 16 (≈ 51.1 µM) | 8 (≈ 25.5 µM) | 128 (≈ 408 µM) | 0.25 (≈ 0.798 µM) | 128 (≈ 408 µM) | 128 (≈ 408 µM) |  | 
N#CCN1CCN(c2cc3c(cc2N)c(=O)c(C(=O)O)cn3C2CC2)CC1 | 64 (≈ 174 µM) | 64 (≈ 174 µM) | 64 (≈ 174 µM) | 64 (≈ 174 µM) | 4 (≈ 10.9 µM) | 2 (≈ 5.44 µM) |  | 32 (≈ 87.1 µM) | 2 (≈ 5.44 µM) | 2 (≈ 5.44 µM) | 2 (≈ 5.44 µM) | 64 (≈ 174 µM) | 64 (≈ 174 µM) |  | 
NCCN1CCN(c2cc3c(cc2N)c(=O)c(C(=O)O)cn3C2CC2)CC1 | 128 (≈ 345 µM) | 32 (≈ 86.2 µM) | 32 (≈ 86.2 µM) | 32 (≈ 86.2 µM) | 0.5 (≈ 1.35 µM) | 0.5 (≈ 1.35 µM) | 128 (≈ 345 µM) | 2 (≈ 5.38 µM) | 2 (≈ 5.38 µM) | 128 (≈ 345 µM) | 0.5 (≈ 1.35 µM) | 64 (≈ 172 µM) | 128 (≈ 345 µM) |  | 
CC(C)(C)n1cc(C(=O)O)c(=O)c2cc(N)c(N3CCc4ccccc4C3)cc21 | 0.25 (≈ 0.639 µM) | 32 (≈ 81.7 µM) | 1 (≈ 2.55 µM) | 2 (≈ 5.11 µM) | 0.12 (≈ 0.307 µM) | 0.12 (≈ 0.307 µM) | 8 (≈ 20.4 µM) | 8 (≈ 20.4 µM) | 8 (≈ 20.4 µM) | 4 (≈ 10.2 µM) | 0.12 (≈ 0.307 µM) | 0.5 (≈ 1.28 µM) | 0.5 (≈ 1.28 µM) |  | 
CC(C)(C)n1cc(C(=O)O)c(=O)c2cc(N)c(N3CCc4ccccc43)cc21 | 2 (≈ 5.3 µM) | 32 (≈ 84.8 µM) | 4 (≈ 10.6 µM) | 8 (≈ 21.2 µM) | 0.12 (≈ 0.318 µM) | 0.12 (≈ 0.318 µM) | 64 (≈ 170 µM) | 8 (≈ 21.2 µM) | 8 (≈ 21.2 µM) | 4 (≈ 10.6 µM) | 0.12 (≈ 0.318 µM) | 4 (≈ 10.6 µM) | 2 (≈ 5.3 µM) |  | 
CN1CCN(c2nc3c(c(N)c2N)c(=O)c(C(=O)O)cn3C2CC2)CC1 | 2 (≈ 5.58 µM) | 8 (≈ 22.3 µM) | 2 (≈ 5.58 µM) | 0.5 (≈ 1.4 µM) | 0.25 (≈ 0.698 µM) | 0.01 (≈ 0.0279 µM) | 8 (≈ 22.3 µM) | 0.25 (≈ 0.698 µM) | 0.25 (≈ 0.698 µM) | 0.5 (≈ 1.4 µM) | 0.01 (≈ 0.0279 µM) | 2 (≈ 5.58 µM) | 2 (≈ 5.58 µM) |  | 
CN1CCN(c2c(F)c(N)c3c(=O)c(C(=O)O)cn(C4CC4)c3c2F)CC1 | 0.06 (≈ 0.159 µM) | 0.25 (≈ 0.661 µM) | 0.25 (≈ 0.661 µM) | 0.05 (≈ 0.132 µM) | 0.004 (≈ 0.0106 µM) | 0.002 (≈ 0.00529 µM) | 0.5 (≈ 1.32 µM) | 0.03 (≈ 0.0793 µM) | 0.03 (≈ 0.0793 µM) | 0.06 (≈ 0.159 µM) | 0.002 (≈ 0.00529 µM) | 0.12 (≈ 0.317 µM) | 0.06 (≈ 0.159 µM) |  | 
CN1CCN(c2c(N)cc3c(=O)c(C(=O)O)cn(C4CC4)c3c2F)CC1 | 4 (≈ 11.1 µM) | 2 (≈ 5.55 µM) | 8 (≈ 22.2 µM) | 8 (≈ 22.2 µM) |  |  | 64 (≈ 178 µM) | 0.25 (≈ 0.694 µM) | 0.25 (≈ 0.694 µM) | 4 (≈ 11.1 µM) | 0.05 (≈ 0.139 µM) | 4 (≈ 11.1 µM) | 4 (≈ 11.1 µM) | 0.05 (≈ 0.139 µM) | 1 (≈ 2.77 µM)
C[C@@H]1CN(c2cc3c(cc2N)c(=O)c(C(=O)O)cn3C2CC2)C[C@H](C)N1 | 8 (≈ 22.4 µM) | 2 (≈ 5.61 µM) | 4 (≈ 11.2 µM) | 8 (≈ 22.4 µM) | 0.03 (≈ 0.0842 µM) | 0.03 (≈ 0.0842 µM) | 32 (≈ 89.8 µM) | 0.25 (≈ 0.701 µM) | 0.5 (≈ 1.4 µM) | 4 (≈ 11.2 µM) | 0.03 (≈ 0.0842 µM) | 2 (≈ 5.61 µM) | 8 (≈ 22.4 µM) |  | 
CN1CCN(c2cc3c(cc2N)c(=O)c(C(=O)O)cn3C(C)(C)C)CC1 | 2 (≈ 5.58 µM) | 4 (≈ 11.2 µM) | 4 (≈ 11.2 µM) | 4 (≈ 11.2 µM) |  |  | 32 (≈ 89.3 µM) | 1 (≈ 2.79 µM) | 1 (≈ 2.79 µM) | 4 (≈ 11.2 µM) | 0.06 (≈ 0.167 µM) | 2 (≈ 5.58 µM) | 2 (≈ 5.58 µM) | 0.06 (≈ 0.167 µM) | 0.06 (≈ 0.167 µM)
Nc1cc2c(=O)c(C(=O)O)cn(C3CC3)c2cc1N1CCC(O)CC1 | 4 (≈ 11.6 µM) | 8 (≈ 23.3 µM) | 4 (≈ 11.6 µM) | 2 (≈ 5.82 µM) | 0.03 (≈ 0.0874 µM) | 0.03 (≈ 0.0874 µM) | 8 (≈ 23.3 µM) | 2 (≈ 5.82 µM) | 2 (≈ 5.82 µM) | 8 (≈ 23.3 µM) | 0.03 (≈ 0.0874 µM) | 2 (≈ 5.82 µM) | 4 (≈ 11.6 µM) |  | 
Nc1cc2c(=O)c(C(=O)O)cn(C3CC3)c2cc1N1CCC(N)C1 (stereo not given) | 128 (≈ 390 µM) | 16 (≈ 48.7 µM) | 128 (≈ 390 µM) | 128 (≈ 390 µM) | 1 (≈ 3.05 µM) | 0.5 (≈ 1.52 µM) | 128 (≈ 390 µM) | 16 (≈ 48.7 µM) | 16 (≈ 48.7 µM) | 128 (≈ 390 µM) | 1 (≈ 3.05 µM) | 128 (≈ 390 µM) | 128 (≈ 390 µM) |  | 
